The numbers were not newly measured in patent publication US20070082063A1, “Risk assessment and correction of membrane damage of the upper GI tract” (priority 2005, published 2007), which cites them from elsewhere.

For series [1] the following is noted: animals with reduced membrane arachidonate.
For series [2] the following is noted: humans or animals with normal membrane arachidonate content.

On to `CCCCC/C=C\C/C=C\C/C=C\CCCCC(=O)O` [GLA, gamma-linolenic acid], for which, in series [1], the “effect on membrane arachidonate content” value is “significantly increase”.
For the molecule `CCCCC/C=C\C/C=C\C/C=C\C/C=C\CCCC(=O)O` [ARA, arachidonic acid], in series [2], the “effect on serum or tissue arachidonate content” value is “little effect”.
